According to patent US20140378529A1, “COLLATERAL GENE INACTIVATION BIOMARKERS AND TARGETS FOR CANCER THERAPY” (Board Regents, The University of Texas System, priority 2011, published 2014):
Like-named read-outs stand apart in the source and are kept apart here.

Key:
enolase = settings: cited from earlier work
[1] = Table 5, cited from earlier work
[2] = tested on: ENO1-null cells (D423-MG, Gli56); test: Cell growth / toxicity in ENO1-null GBM cells; format: cell-based, human; settings: for growth of ENO1-null cells: doxycycline-inducible TRIPZ, D423-MG
Description: (§1) For crystal violet assays, 10,000 cells were seeded in a 6-well plate for each time point. At the indicated time point, cells were fixed with 10% formalin and stained with crystal violet solution for 1 hour. Dye extraction was performed using 10% acetic acid solution and absorbance was read at 590 nm. Cell titer Glo® experiments were performed as indicated by the manufacturer. 1000 cells/well were plated in a 96 well plate for each time point and luminescence readings were taken every 24 hours. All experiments were performed in triplicate.
(§2) Structure and purity were verified by NMR. […] Given the instability of the compound, media was replaced every 5 days and fresh inhibitor added with fresh media.
(§3) Cell growth of shRNA- or PhAH-treated cell lines was assayed either through crystal violet staining or using the Promega CellTiter-Glo proliferation kit (Roche) or alternatively, in vivo, by measuring confluence with the IncuCyte (Essen BioScience). Growth curves using the IncuCyte were generated by imaging every 2 hours with quadruplicate replicates. For crystal violet assays, 10^4 cells were seeded in a 6-well plate for each time point. At the indicated time point, cells were fixed with 10% formalin and stained with crystal violet solution for 1 h. Dye extraction was performed using 10% acetic acid solution, and absorbance was read at 590 nm. CellTiter-Glo experiments were performed according to the manufacturer's instructions; 10^3 cells/well were plated in a 96-well plate for each time point, and luminescence readings were taken every 24 h. All experiments were performed in triplicate. Soft agar (anchorage-independent) growth was monitored in 6-well plates seeded with 10^4 cells of the indicated genotype. The medium contained DMEM with 10% FBS; the top agar contained 0.4% low melting agarose, while the bottom agar contained 1% low melting agarose. Growth was monitored by fluorescence (GFP) and after 28 days colonies were stained with iodonitrotetrazolium chloride (Sigma-Aldrich) and counted.
Structure and purity were verified by NMR. […]

enolase 2 protein = test: shRNA knockdown of ENO2 expression (western blot); format: cell-based, human; settings: pGIPZ vector; D423-MG and D502-MG; vs shNT
Excerpt: Two of these hairpins were in the pLKO.1 vector (ShENO2-1 and shENO2-2) and the remaining two were in the Expression Arrest GIPZ (shENO2-3) and TRIPZ (shENO2-4) shRNAmir vectors (Open Biosystems, Huntsville, Ala.). The hairpin in the GIPZ vector was cloned into the TRIPZ vector using a protocol provided by the manufacturer. The TRIPZ vector is a doxycycline inducible system with a Red fluorescent protein reporter which is only expressed upon doxycycline induction. Recombinant lentivirus was produced by transient transfection of 293T cells following a standard protocol. Briefly, 72 μg of the shRNA plasmid, 54 μg of Delta 8.9 and 18 μg of VSVG plasmids were transfected using Fugene® (Roche, Indianapolis, Ind.) into 293T cells plated in 245 mm2 dishes. Viral supernatant was collected 72 hours after transfection, concentrated by centrifugation at 23,000 rpm and resuspended in cell growth medium. For transduction, viral solutions were added to cell culture medium containing 4 μg/mL polybrene; 48 hours after infection cells were selected using 2 μg/mL puromycin and tested for ENO2 knockdown by western blot.
The hairpin in the GIPZ vector was cloned into the TRIPZ vector using a protocol provided by the manufacturer. The TRIPZ vector is a doxycycline-inducible system with a red fluorescent protein reporter that is expressed only upon doxycycline induction. […]

D423-MG ENO1-null cells = test: Soft agar colony formation assay; format: cell-based, human; settings: vs shNT
Description: Anchorage-independent growth assays were performed in duplicate or triplicate in 6 well plates. 10^4 of indicated cells per well were seeded in DMEM+10% FBS containing 0.4% low-melting agarose on the top of bottom agar containing 1% low-melting agarose DMEM+10% FBS. After 14-21 days, colonies were stained with iodonitrotetrazoliumchloride (Sigma-Aldrich) and counted.
as §3, with “At the indicated time point, cells were fixed with 10% formalin and stained with crystal violet solution for 1 h.” left out, “All experiments were performed in triplicate.” left out, “The medium contained DMEM with 10% FBS; the top agar contained 0.4% low melting agarose, while the bottom agar contained 1% low melting agarose.” left out

D423-MG cells = test: Orthotopic brain tumor formation; format: in vivo, SCID mice; settings: D423-MG injected intracranially; vs shNT
Description: Injection of D423-MG cells was performed as previously described (in Zheng et al., 2008) SCID mice (Charles River) aged 6-12 weeks were placed into stereotactic apparatus equipped with a Z axis (Stoelting). A hole was bored in the skull 0.5 mm anterior and 3.0 mm lateral to the bregma using a dental drill. One hundread thousand cells in Hanks Buffered Salt Solution were injected into the right caudate nucleus 3 mm below the surface of the brain using a 10-μl Hamilton syringe with an unbeveled 30 gauge needle. The scalp was closed using a 9-mm Autoclip Applier. Animals were followed daily for the development of neurological deficits.
The in vivo tumorigenic potential of D423-MG cells transduced with non-targeting hairpin or shENO2-3 delivered through pGIPZ was determined as previously described (Zheng et al., 2008). SCID mice (Charles River) under deep anesthesia were placed into a stereotactic apparatus equipped with a z axis (Stoelting). Then, 3×10^5 cells were injected intracranially into the right caudate nucleus 3 mm below the surface of the brain, using a 10-μl Hamilton syringe. The animals were followed daily for development of neurological deficits. All mice experiments were performed with the approval of the Harvard Cancer Center and Dana-Farber Cancer Institute Institutional Animal Care and Use Committee.

SK-MEL-2 cells [3] = test: Borrelidin growth and cytotoxicity, SK-MEL-2 (TARS Het); format: cell-based, human
Description: (§4) The effect of various concentrations of Borrelidin on the growth of the four melanoma cells lines over time was also studied (FIG. 21).
To this end, the inventors ran the same live growth assay, except starting with a high confluence of SK-MEL-2 cells at time zero. Under these conditions it became apparent that concentrations of Borrelidin at or above 15 nM are cytotoxic to SK-MEL-2 cells, while lower concentrations are growth inhibitory (FIG. 22).

SK-MEL-5 cells = test: Borrelidin growth, SK-MEL-5 (TARS WT); format: cell-based, human
Excerpt: as §4

HMEL cells = test: Borrelidin growth, HMEL (TARS WT); format: cell-based, human
Excerpt: as §4

451 Lu cells = test: Borrelidin growth, 451 Lu (TARS deficient); format: cell-based, human
Excerpt: as §4

SK-MEL-2 cells [4] = settings: NCI-60 database; cited from earlier work
ENO1-null D423-MG cells = test: Relative growth with receptor tyrosine kinase inhibitors or rapamycin; format: cell-based, human; settings: combination of sorafenib, lapatinib and PHA665752
Description: Given the instability of the compound, the medium was replaced every 5 days and fresh inhibitor added with fresh medium.

[5] = tested on: ENO1 WT GBM cells and normal astrocytes; test: Cell growth / toxicity in ENO1 WT GBM cells and normal astrocytes; format: cell-based, human
Description: as §1, §2
(§5) Cell growth of shRNA- or PhAH-treated cell lines was assayed either through crystal violet staining or using the Promega CellTiter-Glo proliferation kit (Roche) or alternatively, in vivo, by measuring confluence with the IncuCyte (Essen BioScience). […] Dye extraction was performed using 10% acetic acid solution, and absorbance was read at 590 nm. CellTiter-Glo experiments were performed according to the manufacturer's instructions; 10^3 cells/well were plated in a 96-well plate for each time point, and luminescence readings were taken every 24 h. […] Soft agar (anchorage-independent) growth was monitored in 6-well plates seeded with 10^4 cells of the indicated genotype. […]

[6] = tested on: ENO1 heterozygous cells (D502-MG and U343); test: Cell growth / toxicity in ENO1 heterozygous GBM cells; format: cell-based, human
Description: as §1, §2, §5

yeast enolase = yeast enolase (Saccharomyces cerevisiae, UniProt P00924); settings: read-out: inhibitory constant on yeast enolase; Anderson et al., 1984; cited from earlier work
Chain of yeast enolase (P00924 whole entry): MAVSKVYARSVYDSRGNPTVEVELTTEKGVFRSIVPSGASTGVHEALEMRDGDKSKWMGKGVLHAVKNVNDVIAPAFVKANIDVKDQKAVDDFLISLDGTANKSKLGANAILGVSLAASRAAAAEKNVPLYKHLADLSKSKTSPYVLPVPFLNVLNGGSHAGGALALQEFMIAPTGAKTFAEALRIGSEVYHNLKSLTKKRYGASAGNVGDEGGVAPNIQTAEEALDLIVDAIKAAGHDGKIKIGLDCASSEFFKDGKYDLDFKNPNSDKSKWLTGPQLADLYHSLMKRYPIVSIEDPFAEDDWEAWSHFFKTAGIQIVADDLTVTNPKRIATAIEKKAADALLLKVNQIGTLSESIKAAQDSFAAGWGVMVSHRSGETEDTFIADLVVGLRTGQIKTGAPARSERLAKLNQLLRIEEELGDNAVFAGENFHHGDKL

[7] = Table 5, published enolase inhibitors
[8] = Table 4, known enolase inhibitors
[9] = printed: SK-MEL-2 cell line, which is also wild-type for TARS

Q: Which Ki (enolase; [7]) does the source give for 2-fluoro-2-phosphonoacetohydroxamate here?
A: 1400 nM

Q: What about the pKa [1] of the same compound?
A: 8.1

Q: For “5′-CGGCCTTCAACGTGATCAA-3′ (expressed or natural sequence) [shENO2-3]”, which “growth of ENO1-null cells” value [2] is on record?
A: dramatically inhibited growth

Q: And the cell proliferation ([2]; pGIPZ, only in the context of ENO1 genomic deletion (D423-MG))?
A: dramatically slowed

Q: What about the “reduction of expression of ENO2” value (enolase 2 protein) of the same compound?
A: > 70%

Q: What about the “soft agar colony formation” value (D423-MG ENO1-null cells) of the same compound?
A: dramatically decreased

Q: And the “in vivo tumorigenic properties” value (D423-MG cells)?
A: dramatically decreased

Q: With “5′-GGGACTGAGAACAAATCCA-3′ (expressed or natural sequence) [shENO2-4]” as the compound, how does the “growth of ENO1-null cells” value [2] read?
A: dramatically inhibited growth

Q: Which results are given for `NC=C(OP(=O)(O)O)C(=O)O` [3-aminoenolpyruvate-2-phosphate]?
A: Ki (enolase; [8]): 100 nM; Ki (enolase; [7]): 100 nM

Q: For `O=[N+]([O-])C(CO)CP(=O)(O)O` (centres unmarked) [(3-hydroxy-2-nitropropyl)phosphonate], which Ki (enolase; [8]) is on record?
A: 1 nM

Q: And the Ki (enolase; [7])?
A: 6 nM

Q: And the pKa [1]?
A: 8.1

Q: Which Ki (enolase; [8]) does the source give for `O=[N+]([O-])CCP(=O)(O)O` [(nitroethyl)phosphonate] here?
A: 1000 nM

Q: What about the Ki (enolase; [7]) of the same compound?
A: 1000 nM

Q: And the pKa [1]?
A: 8.5

Q: Which results are given for `C[C@@H]1C[C@H](C)C[C@H](C)[C@@H](O)CC(=O)O[C@H]([C@@H]2CCC[C@H]2C(=O)O)C/C=C/C=C(/C#N)[C@H](O)[C@@H](C)C1` [Borrelidin]?
A: effect on growth at low concentrations (SK-MEL-2 cells [3]; SK-MEL-2): stalled the growth; lowest concentration with at least partial sensitivity (SK-MEL-2 cells [3]; SK-MEL-2): ≥ 3.9 nM; cytotoxic concentration (SK-MEL-2 cells [3]; SK-MEL-2, high confluence at time zero): ≥ 15 nM; concentration that completely inhibited growth (SK-MEL-2 cells [3]; SK-MEL-2, low initial cell density): 31.25 nM; effect on growth at low concentrations (SK-MEL-5 cells; SK-MEL-5): minimal to no effect; sensitivity of growth at 62.5 nM (SK-MEL-5 cells; [9]): partially sensitive; sensitivity of growth at concentrations less than 31.25 nM (SK-MEL-5 cells; [9]): largely resistant; effect on growth at low concentrations (HMEL cells): minimal to no effect; sensitivity of growth at the highest tested concentration (HMEL cells; 62.5 nM): resistant; concentration that nearly inhibited growth (451 Lu cells): 62.5 nM; sensitivity to Borrelidin treatment (451 Lu cells): intermediate sensitivity; Sensitivity to borrelidin (IC50) in a panel of cancer cell lines (SK-MEL-2 cells [4]): lowest IC50

Q: For `O=CC(OP(=O)(O)O)C(=O)O` [D-tartronate semialdehyde phosphate], which Ki (enolase; [8]) is on record?
A: 10000 nM

Q: What about the Ki (enolase; [7]) of the same compound?
A: 10000 nM

Q: What does the source list for `F` [Fluoride]?
A: Ki (M) (enolase; [8]): Varied depending; Ki (M) (enolase; [7]): Varied

Q: For `Cc1[nH]c(/C=C2\C(=O)Nc3ccc(S(=O)(=O)Cc4c(Cl)cccc4Cl)cc32)c(C)c1C(=O)N1CCC[C@@H]1CN1CCCC1` [PHA665752], which “sensitivity of ENO1-null D423-MG cells versus ENO1 WT GBM cell lines” value (ENO1-null D423-MG cells) is on record?
A: no more sensitive

Q: Which results are given for `O=C(CP(=O)(O)O)NO` [PhAH, phosphonoacetohydroxamate]?
A: concentration above which PhAH has more than minimal effect on growth [5]: higher than 50 μM; times lower doses for similar growth inhibition compared with normal human astrocytes [6]: about 8 times; Ki (yeast enolase): 0.015 nM; pKa ([1]; listed as Phosphonoacetohydroxamate): 10.2

Q: Which “sensitivity of ENO1-null D423-MG cells versus ENO1 WT GBM cell lines” value (ENO1-null D423-MG cells) does the source give for `CS(=O)(=O)CCNCc1ccc(-c2ccc3ncnc(Nc4ccc(OCc5cccc(F)c5)c(Cl)c4)c3c2)o1` [lapatinib] here?
A: no more sensitive

Q: Which “effect of oligomycin on its own” value ([6]; oligomycin 10 nM) does the source give for `CC[C@H]1/C=C/C=C/C[C@@H](C)[C@H](O)[C@@](C)(O)C(=O)[C@@H](C)[C@H](O)[C@@H](C)C(=O)[C@@H](C)[C@H](O)[C@@H](C)/C=C/C(=O)O[C@@H]2[C@H](C)[C@H](CC1)O[C@]1(CC[C@H](C)[C@H](C[C@@H](C)O)O1)[C@H]2C` [oligomycin] here?
A: minimal effects

Q: Which Ki (enolase; [8]) does the source give for d-(phosphonoethyl)nitrolate here?
A: 14 nM

Q: What about the Ki (enolase; [7]) of the same compound?
A: 14 nM
